“And” between values parts separate entries of the source, which are not always exact repeats. Equal entries are not always repeated. Marks after values point to notes of the source that are not given here. Ends that are not written are not given here.
Tests used:
Assay type in all cases: in vivo, cattle
[1] = tested on: Hereford crossbred heifers; assay: Cetrorelix pre-treatment before kisspeptin-10 in low-progesterone heifer model (Example 1); conditions: for Ovulation rate after treatments: number of heifer/total: extant dominant follicle
Description: Methods: The human Kisspeptin-10 (hKP-10) peptide (YNWNSFGLRF-NH2; SEQ ID NO: 1) was custom synthetized at >95% of purity (MW: 1318.44 g/mol) by GenScript USA Inc, Piscataway, NJ, USA. The sequence is based on the predicted C-terminal region (112-121-NH2) of human metastin (Gen Bank accession #AY117143) and has been previously used in cattle. The peptide was previously tested for solubility and was dissolved in ultrapure water at 10 mg/mL.
The heifers were maintained in outdoor pens at the University of Saskatchewan Goodale Research Farm (52° north and 106° west). Heifers were fed barley silage and had hay and water ad libitum. A mineral salt block was available to heifers throughout the study period. All procedures were performed in accordance with Canadian Council on Animal Care and were approved by the University of Saskatchewan Protocol Review Committee.
Immediately after ultrasound examination, heifers were given PGF2a twice at an interval of 12-hours. The low-progesterone bovine model described previously (Leonardi et al. 2019) was used to test the hypothesis. Briefly, the ovaries were examined daily by ultrasonography to detect ovulation. Three days after ovulation, follicles ≥5 mm in diameter in both ovaries were ablated by transvaginal ultrasound-guided follicle aspiration, inducing the emergence of new follicular wave 1.5 days after the procedure (Bergfelt et al. 1994). After follicular ablation, a progesterone device was placed in the vagina (CIDR; Zoetis). The day of wave emergence (Day 0) was defined as the day when the follicle of wave was first recorded (4 to 5 mm in diameter) with concurrent increase in diameter. Heifers were given PGF2α im on Days 3.5 and 4 (i.e., 8 and 8.5 days after ovulation) to cause luteolysis, however, the CIDR devices were left in place until Day 12 to maintain a low-progesterone milieu sufficient to prevent spontaneous ovulation. On Day 6, an indwelling jugular catheter was placed as described (Bergfelt et al. 1997) and heifers were assigned randomly to three groups (n=5 per group): 1) 3 iv doses of 15 mg human kisspeptin-10 at 1 h intervals (Kp10 group), 2) pretreatment with single im dose of Cetrorelix acetate (20 μg/Kg of body weight, GnRH antagonist—Sigma #C5249 diluted in 5% D-Manitol w/v, Sigma #M4125) followed 3 h later with 3 iv doses of 15 mg human kisspeptin-10 at 1 h intervals (Cetrorelix group), or 3) 3 iv doses of normal saline at 1 h intervals (Control group). Following treatment (on Day 6), ovarian ultrasound examinations were performed daily until the end of the experiment to detect ovulation of the extant dominant follicle (i.e., dominant follicle present at the time of treatment) or of the dominant follicle originating from a subsequent wave. The progesterone device was withdrawn on Day 12 (i.e., thirteen days after insertion) and ultrasound examinations were continued until ovulation was detected.
Blood samples and hormone assays: Serial blood samples on the day of treatment were collected at 15 minute intervals from −30 to 150 min (0 min=time of first hKP-10 or saline injection) using the indwelling jugular catheter. All blood samples were collected in heparinized tubes (Vacutainer, BD, Franklin Lakes NJ, USA). Immediately after sampling, tubes were centrifuged at 1,500×g for 15 min, and plasma was separated and stored at −20° C.
The plasma samples from both experiments were analyzed for LH and progesterone concentration at the University of Wisconsin (Madison, WI, USA) in Dr O. J. Ginther's Research Laboratory. Plasma LH concentrations were measured with a validated radioimmunoassay for cattle (Bolt et al. 1990) with modifications as reported Ginther et al. 1999). Briefly, LH concentrations were measured in duplicate using USDA-bLH-B-6 for ^125I-iodination and for preparing reference standards, and USDA-309-684P as the primary antibody (National Hormone and Pituitary Program, Torrance, CA, USA). […]

mature Angus heifers = assay: Cetrorelix versus estradiol benzoate synchronization protocol with AI, random day of cycle (Example 7)
Description: This experiment was conducted on 38 mature Angus heifers at the Federal University of Santa Maria in Brazil. Heifers on a random day of the cycle (defined as Day 0) were divided into 2 groups (n=19 per group) and treated with a single i/m injection of 3 mg cetrorelix or with estradiol benzoate (1 mg i/m). A progesterone-releasing device (CIDR) was placed in the vagina of heifers at this time. Eight days after the cetrorelix or estradiol treatments, heifers were given 500 ug cloprostenol (prostaglandin analog) i/m injections and the CIDR device was removed. […] Heifers were given 250 ug gonadorelin acetate (GnRH analog) i/m injection at the time of artificial insemination. […] Pregnancy diagnosis was done 29-30 days after artificial insemination.

[2] = tested on: Brahman x Angus cross beef post-partum cows; assay: Field trial of fixed-time AI after cetrorelix versus estradiol protocol (Example 8)
Description: This field trial was conducted by a faculty member of the Federal University of Santa Maria at a client beef farm in Brazil in December 2022. A total of 216 Brahman x Angus cross beef post-partum cows were used for this experiment. Cows were divided into two treatment groups ([…]) and were either given cetrorelix 3 mg i/m or estradiol benzoate on a random day of the cycle (defined as Day 0). An intravaginal progesterone device (CIDR) was placed in all cows on Day 0. The CIDR devices were removed on Day 8 and animals were given prostaglandin F2a analog and equine choriogonadotropin (eCG). Fixed-time artificial insemination was done 54 hrs after CIDR removal and animals were given GnRH at this time. Pregnancy diagnosis was performed on Day 30 after artificial insemination. Transrectal ultrasound examinations were performed on Day 0, Day 8, Day 10 and Day 40.

[3] = Day 6 of wave, low progesterone, Kp10 3 x 15 mg iv, Cetrorelix 20 μg/Kg im 3 h before Kp10
[4] = Kp10 3 x 15 mg iv, Cetrorelix 20 μg/Kg im 3 h before Kp10
[5] = 3 mg cetrorelix or 1 mg estradiol benzoate i/m
[6] = 30 days after fixed-time artificial insemination

Kp10: human Kisspeptin-10 (hKP-10) peptide YNWNSFGLRF-NH2; SEQ ID NO: 1 (listed as Homo sapiens)
Interval between treatment and ovulation (hours after treatment) ([1]; Day 6 of wave, low progesterone, Kp10 3 x 15 mg iv): 48 h
Dominant follicle diameter 24 h after treatment [1, 3]: 12.24 ± 0.89 mm
Dominant follicle diameter 48 h after treatment [1, 3]: 16.51 mm
Dominant follicle diameter at time of treatment [1, 3]: 11.34 ± 0.91 mm
Emergence of a new follicular wave after treatment ([1]; Day 6 of wave, low progesterone, Kp10 3 x 15 mg iv, Cetrorelix single im 20 μg/Kg 3 h before Kp10): 2.75 ± 0.75 days
Day of ovulation of new dominant follicles after CIDR removal (Day 12) ([1]; Day of follicular wave): 15
Heifers in which a new wave emergence occurred [1, 4]: 4 of 5
Number of ovulations after CIDR removal on Day 12: Extant dominant follicle [1, 4]: 1/1
Number of ovulations after CIDR removal on Day 12: New dominant follicle [1, 4]: 4/4
Plasma LH concentration / kisspeptin-induced LH surge [1, 4]: higher plasma LH concentrations
Ovulation rate after treatments: number of heifer/total [1, 3]: 4 of 5 and 4/5^a
Ovulation rate after treatments: number of heifer/total ([1]; Day 6 of wave, low progesterone, Kp10 3 x 15 mg iv, Cetrorelix 20 μg/Kg im 3 h before Kp10, listed as kisspeptin): 4 out of 5

C[C@]12CC[C@@H]3c4ccc(OC(=O)c5ccccc5)cc4CC[C@H]3[C@@H]1CC[C@@H]2O [Estradiol benzoate, estradiol benzoate]
Pregnant/Double AI (mature Angus heifers; [5]): 7/12
Pregnant/Double AI, percent (mature Angus heifers; [5]): 58%
Pregnant/Single AI (mature Angus heifers; [5]): 6/7
Pregnant/Single AI, percent (mature Angus heifers; [5]): 86%
Pregnant/Total, percent (pregnancy rate) (mature Angus heifers; random day of cycle, 3 mg cetrorelix i/m or 1 mg estradiol benzoate i/m, CIDR 8 days): 68%
Pregnant/Total (mature Angus heifers; random day of cycle, 3 mg cetrorelix i/m or 1 mg estradiol benzoate i/m, CIDR 8 days, PGF, GnRH at AI): 13/19
Conception rate: Percent [2, 6]: 45.6%
Conception rate: Pregnant/AI [2, 6]: 48/106*
Conception rate: Percent ([2]; 30 days after fixed-time artificial insemination, listed as estradiol): 45.6%
Size of the dominant follicle on Day 8 (at PGF) ([2]; cetrorelix 3 mg i/m or estradiol benzoate on Day 0, CIDR removal Day 8, in mm): 8.60 ± 0.39
Size of the dominant follicle on Day 10 (at AI) ([2]; cetrorelix 3 mg i/m or estradiol benzoate on Day 0, in mm): 11.38 ± 0.56
